{"source": "paper PMC9527238", "about": "“Glutamate and GABAA receptor crosstalk mediates homeostatic regulation of neuronal excitation in the mammalian brain” (Signal Transduction and Targeted Therapy, 2022)", "key": {"[1]": {"molecular_target": "T1, α1^S158A β2 γ2 GABAAR (Rattus norvegicus, UniProt P62813+P63138, S185A)", "T1 construct": "expressed in transfected cells; host or cells: HEK293", "test": "Patch clamp, HEK293, mutant GABAAR", "format": "cell-based", "conditions": "GABA-evoked currents", "method": "(§1) To positively confirm one of these two putative binding sites involved in glutamate binding, we performed a systemic mutational analysis of critical amino acids around these two sites followed by electrophysiological characterizations of their impacts on glutamate potentiation in HEK293 cells expressing wild-type or mutated α1β2γ2 GABAARs (Table 1).\n(§2) HEK293 cells were cultured in DMEM (Invitrogen) supplemented with 10% fetal bovine serum. Cells were grown to 40–60% confluence and transiently transfected using Lipofectamine 2000 (Invitrogen) with 1:0.5–1 plasmid/lipid ratio. Cells were transfected with a pBK-CMV expression vector containing a rat recombinant GABAAR α, β or γ subunits. Co-transections were done with a plasmid ratio of 1:1 αβ and 2:2:1 for αβγ subunit combinations, respectively. pcDNA3.1-GFP was also co-transfected along with GABAAR subunits as a transfected marker in order to facilitate the visualization of the transfected cells during electrophysiological experiments. Cells were re-plated on glass coverslips after 15–20 h transfection and were cultured for an additional 15–24 h before whole-cell patch-clamp recordings.\n(§3) The site-directed mutagenesis of α, β or γ subunits were performed by using the QuikChange method (Stratagene). […] Wild-type or mutant subunits were transfected in HEK293 cells and subjected to electrophysiology examinations.\n(§4) Whole-cell patch-clamp recordings were performed under voltage-clamp mode using an Axopatch 200B or 1D patch-clamp amplifier (Molecular Devices) on HEK293 cells and cultured neurons. Whole-cell currents were recorded at a holding potential of −60 mV, and signals were filtered at 2 kHz, digitized at 10 kHz (Digidata 1322 A). Recording pipettes (3–5 MΩ) were filled with the intracellular solution that contained (mM): CsCl 140, HEPES 10, Mg-ATP 4, QX-314 5, pH 7.20; osmolarity, 290–295 mOsm. BAPTA (10 mM) was added in the intracellular solution. The coverslips were continuously superfused with the extracellular solution containing (mM): NaCl 140, KCl 5.4, HEPES 10, MgCl2 1.0, CaCl2 1.3, glucose 20, pH 7.4; osmolarity, 305–315 mOsm. […] Dose–response curves were created by fitting data to Hill equation: I = Imax/[1 + (EC50/[A])^n], where I is the current, Imax is the maximum current, [A] is a given concentration of agonist, n is the Hill coefficient. […] All experiments were performed at room temperature."}, "[2]": {"molecular_target": "T2, α1^F99A β2 γ2 GABAAR (Rattus norvegicus, UniProt P62813+P63138, F126A)", "T2 construct": "expressed in transfected cells; host or cells: HEK293", "test": "Patch clamp, HEK293, mutant GABAAR", "format": "cell-based", "conditions": "GABA-evoked currents", "method": "as §1, §2, §3, §4"}, "[3]": {"molecular_target": "T3, α1 β2^G126A γ2 GABAAR (Rattus norvegicus, UniProt P62813+P63138, G151A)", "T3 construct": "expressed in transfected cells; host or cells: HEK293", "test": "Patch clamp, HEK293, mutant GABAAR", "format": "cell-based", "method": "as §1, §2, §3, §4"}, "[4]": {"molecular_target": "T4, α1 β2^Y61A γ2 GABAAR (Rattus norvegicus, UniProt P62813+P63138, Y86A)", "T4 construct": "expressed in transfected cells; host or cells: HEK293", "test": "Patch clamp, HEK293, mutant GABAAR", "format": "cell-based", "method": "as §1, §2, §3, §4"}, "[5]": {"molecular_target": "T5, α1^E208A β2 γ2 GABAAR (Rattus norvegicus, UniProt P62813+P63138, E235A)", "T5 construct": "expressed in transfected cells; host or cells: HEK293", "test": "Patch clamp, HEK293, mutant GABAAR", "format": "cell-based", "conditions": "GABA-evoked currents", "method": "as §1, §2, §3, §4"}, "[6]": {"molecular_target": "T6, α1^T206A β2 γ2 GABAAR (Rattus norvegicus, UniProt P62813+P63138, T233A)", "T6 construct": "expressed in transfected cells; host or cells: HEK293", "test": "Patch clamp, HEK293, mutant GABAAR", "format": "cell-based", "conditions": "GABA-evoked currents", "method": "as §1, §2, §3, §4"}, "[7]": {"molecular_target": "T7, α1 β2 ^I180A γ2 GABAAR (Rattus norvegicus, UniProt P62813+P63138, I205A)", "T7 construct": "expressed in transfected cells; host or cells: HEK293", "test": "Patch clamp, HEK293, mutant GABAAR", "format": "cell-based", "conditions": "GABA-evoked currents", "method": "as §1, §2, §3, §4"}, "[8]": {"molecular_target": "T8, α1 β2^Q63A γ2 GABAAR (Rattus norvegicus, UniProt P62813+P63138, Q88A)", "T8 construct": "expressed in transfected cells; host or cells: HEK293", "test": "Patch clamp, HEK293, mutant GABAAR", "format": "cell-based", "method": "as §1, §2, §3, §4"}, "[9]": {"molecular_target": "T9, α1 β2^V177A γ2 GABAAR (Rattus norvegicus, UniProt P62813+P63138, V202A)", "T9 construct": "expressed in transfected cells; host or cells: HEK293", "test": "Patch clamp, HEK293, mutant GABAAR", "format": "cell-based", "method": "as §1, §2, §3, §4"}, "[10]": {"molecular_target": "T10, α1^S205A β2 γ2 GABAAR (Rattus norvegicus, UniProt P62813+P63138, S232A)", "T10 construct": "expressed in transfected cells; host or cells: HEK293", "test": "Patch clamp, HEK293, mutant GABAAR", "format": "cell-based", "conditions": "GABA-evoked currents", "method": "as §1, §2, §3, §4"}, "[11]": {"molecular_target": "T11, α1^H101A β2 γ2 GABAAR (Rattus norvegicus, UniProt P62813+P63138, H128A)", "T11 construct": "expressed in transfected cells; host or cells: HEK293", "test": "Patch clamp, HEK293, mutant GABAAR", "format": "cell-based", "conditions": "GABA-evoked currents", "method": "as §1, §2, §3, §4"}, "[12]": {"molecular_target": "T12, α1^Y159A β2 γ2 GABAAR (Rattus norvegicus, UniProt P62813+P63138, Y186A)", "T12 construct": "expressed in transfected cells; host or cells: HEK293", "test": "Patch clamp, HEK293, mutant GABAAR", "format": "cell-based", "conditions": "GABA-evoked currents", "method": "as §1, §2, §3, §4"}, "[13]": {"molecular_target": "T13, α1β2 GABAARs (Rattus norvegicus, UniProt P62813+P63138)", "T13 construct": "expressed in transfected cells; host or cells: HEK293", "test": "[3H]glutamate binding assay, plasma membranes of HEK293 cells overexpressing α1 and β2", "conditions": "40 nM [3H]glutamate + 0.4 mM non-radiolabeled competitor", "method": "For membrane preparation, transfected or non-transfected HEK293 cells were washed twice with cold PBS and harvested by scraping into 5 ml cold PBS. Cells were then centrifuged at 1200 × g for 12 min at 4 °C and medium was removed. The washing procedure was repeated twice. Then the cell pellet was re-suspended into 1 ml of 50 mM Tris-HCl buffer (pH 7.4, with protease inhibitor) and homogenized using syringes with 18-G, 21-G and 23-G needles.\nTo separate the membrane, the homogenate were centrifuged for 20 min at 20,000 × g at 4 °C. Then the pellet was re-suspended into 1 ml of 50 mM Tris-HCl buffer, pH 7.4 and centrifuged again. After repeating this procedure for one more time, the pellet was re-suspended into 1 ml of 50 mM Tris-HCl buffer, pH 7.4 and the protein concentration was measured.\nTo conduct the binding assay, 100 µg membrane enriched preparation was incubated with 40 nM [3H]-Glutamate in a total volume of 0.5 ml in 50 mM Tris-HCl buffer, pH 7.4 for 1 h on ice. […] Then the reaction was terminated by quickly filtering the solution on Whatman filter paper and washing by 3.5 ml Tris-HCl buffer. Radioactivity was measured in a Beckman liquid scintillation counter."}, "[14]": {"molecular_target": "T14, α1^K155D β2 γ2 GABAAR (Rattus norvegicus, UniProt P62813+P63138, K182D)", "T14 construct": "expressed in transfected cells; host or cells: HEK293", "test": "Patch clamp, HEK293, mutant GABAAR", "format": "cell-based", "conditions": "GABA-evoked currents", "description": "(§5) The subunits are color-coded individually. The boxed regions are further enlarged in the middle panels, highlighting the predicted glutamate binding pocket in the α+ and β− interface, just below the loop C. […] Relative potentiation was obtained by normalizing potentiation observed in the mutated receptor to that in the respective wild-type receptor.\nas §1, §2, §3, §4"}, "[15]": {"molecular_target": "T15, α1 β2^E181G γ2 GABAAR (Rattus norvegicus, UniProt P62813+P63138, E206G)", "T15 construct": "expressed in transfected cells; host or cells: HEK293", "test": "Patch clamp, HEK293, mutant GABAAR", "format": "cell-based", "description": "as §5, §1, §2, §3, §4"}, "[16]": {"molecular_target": "T16, α1^K104D β2 γ2 GABAAR (Rattus norvegicus, UniProt P62813+P63138, K131D)", "T16 construct": "expressed in transfected cells; host or cells: HEK293", "test": "Patch clamp, HEK293, mutant GABAAR", "format": "cell-based", "description": "as §5, §1, §2, §3, §4"}}}
{"smiles": "NCCCC(=O)O", "note": "[GABA, gamma-Aminobutyric acid]", "values": [{"measurement": "Imax (nA)", "setting": "[1]", "value": "1.3 ± 0.5", "unit": "nA"}, {"measurement": "Imax (nA)", "setting": "[2]", "value": "1.0 ± 0.7", "unit": "nA"}, {"measurement": "Hill Slope", "setting": "[3]; GABA dose-response", "value": "2.28 ± 0.74"}, {"measurement": "Imax (nA)", "setting": "[3]; GABA-evoked currents", "value": "1.3 ± 0.4", "unit": "nA"}, {"measurement": "Hill Slope", "setting": "[4]; GABA dose-response", "value": "2.91 ± 1.30"}, {"measurement": "Imax (nA)", "setting": "[4]; GABA-evoked currents", "value": "1.0 ± 0.5", "unit": "nA"}, {"measurement": "Imax (nA)", "setting": "[5]", "value": "1.8 ± 0.8", "unit": "nA"}, {"measurement": "Imax (nA)", "setting": "[6]", "value": "1.9 ± 0.8", "unit": "nA"}, {"measurement": "Imax (nA)", "setting": "[7]", "value": "1.7 ± 0.4", "unit": "nA"}, {"measurement": "Hill Slope", "setting": "[8]; GABA dose-response", "value": "2.09 ± 0.93"}, {"measurement": "Imax (nA)", "setting": "[8]; GABA-evoked currents", "value": "1.0 ± 0.5", "unit": "nA"}, {"measurement": "Hill Slope", "setting": "[9]; GABA dose-response", "value": "1.12 ± 0.37"}, {"measurement": "Imax (nA)", "setting": "[9]; GABA-evoked currents", "value": "1.7 ± 0.9", "unit": "nA"}, {"measurement": "Imax (nA)", "setting": "[10]", "value": "2.3 ± 1.1", "unit": "nA"}, {"measurement": "Imax (nA)", "setting": "[11]", "value": "0.9 ± 0.5", "unit": "nA"}, {"measurement": "Imax (nA)", "setting": "[12]", "value": "1.1 ± 0.5", "unit": "nA"}, {"measurement": "[3H]glutamate binding activity in presence of competitor", "setting": "[13]", "value": "939.2 ± 88.8", "unit": "CPM"}, {"measurement": "Imax (nA)", "setting": "[14]", "value": "1.3 ± 0.5", "unit": "nA"}, {"measurement": "Hill Slope", "setting": "[15]; GABA dose-response", "value": "1.59 ± 0.14"}, {"measurement": "Imax (nA)", "setting": "[15]; GABA-evoked currents", "value": "1.1 ± 0.2", "unit": "nA"}, {"measurement": "Hill Slope", "setting": "[16]; GABA dose-response", "value": "1.70 ± 0.17"}, {"measurement": "Imax (nA)", "setting": "[16]; GABA-evoked currents", "value": "2.3 ± 0.7", "unit": "nA"}]}
